pIC50: −log10 of the molar value. Calls of active or inactive are those of the source. The rule behind the calls is not given here.
system: MON; test: (§1) Cytotoxicity against human MON cells after 3 days by MTS assay; assay type: functional, cell-based; details: not given

Row | Structure (SMILES) | Activity
1 | CC1=C(/C=C/C(C)=C/C=C/C(C)=C/C(=O)Nc2ccc(O)c([N+](=O)[O-])c2)C(C)(C)CCC1 | inactive
2 | CC1=C(/C=C/C(C)=C/C=C/C(C)=C/C(=O)Nc2ccc(I)cc2)C(C)(C)CCC1 | inactive

system: not listed separately; test: as §1; assay type: functional, cell-based; details: Homo sapiens, MON, 72 h; read-out: IC50

Row | Structure (SMILES) | pIC50
3 | CC1=C(/C=C/C(C)=C/C=C/C(C)=C/C(=O)Nc2ccc(O)c(F)c2)C(C)(C)CCC1 | 5.10
4 | CC1=C(/C=C/C(C)=C/C=C/C(C)=C/C(=O)Nc2ccc(O)cc2O)C(C)(C)CCC1 | 5.10
5 | CC1=C(/C=C/C(C)=C/C=C/C(C)=C/C(=O)Nc2ccc(O)c(I)c2)C(C)(C)CCC1 | 5.52
6 | CC1=C(/C=C/C(C)=C/C=C/C(C)=C/C(=O)O)C(C)(C)CCC1 [TRETINOIN] | 4.00
7 | CC1=C(/C=C/C(C)=C/C=C/C(C)=C/C(=O)Nc2ccc(CCO)cc2)C(C)(C)CCC1 | < 4.30
8 | CC1=C(/C=C/C(C)=C/C=C/C(C)=C/C(=O)Nc2ccc(Cl)cc2)C(C)(C)CCC1 | < 3.70
9 | CC1=C(/C=C/C(C)=C/C=C/C(C)=C/C(=O)Nc2ccc(CO)cc2)C(C)(C)CCC1 | 4.60
10 | CC1=C(/C=C/C(C)=C/C=C/C(C)=C/C(=O)Nc2ccc(O)c(Cl)c2)C(C)(C)CCC1 | 4.90
11 | CC1=C(/C=C/C(C)=C/C=C/C(C)=C/C(=O)Nc2ccc(F)cc2)C(C)(C)CCC1 | 3.82
12 | CC1=C(/C=C/C(C)=C/C=C/C(C)=C/C(=O)Nc2ccc(Br)cc2)C(C)(C)CCC1 | 3.82
13 | CC1=C(/C=C/C(C)=C/C=C/C(C)=C/C(=O)Nc2ccc([N+](=O)[O-])cc2)C(C)(C)CCC1 | < 3.70

same assay, conditions: mon

Row | Structure (SMILES) | IC50
14 | COc1ccc(NC(=O)/C=C(C)/C=C/C=C(C)/C=C/C2=C(C)CCCC2(C)C)cc1 | Not Active

same assay, conditions: mon; read-out: IC50

Row | Structure (SMILES) | pIC50
15 | CC1=C(/C=C/C(C)=C/C=C/C(C)=C/C(=O)Nc2ccc(O)cc2)C(C)(C)CCC1 (stereo in doubt; 5g) [FENRETINIDE] | 4.72
16 | CC1=C(/C=C/C(C)=C/C=C/C(C)=C/C(=O)Nc2ccc(O)cc2)C(C)(C)CCC1 (stereo in doubt) [FENRETINIDE] | 5.05
